Series [1] addresses T1, cystathionine synthase (CS) (Oryctolagus cuniculus, UniProt Q9N0V7).
T1 sequence (Q9N0V7 1-551): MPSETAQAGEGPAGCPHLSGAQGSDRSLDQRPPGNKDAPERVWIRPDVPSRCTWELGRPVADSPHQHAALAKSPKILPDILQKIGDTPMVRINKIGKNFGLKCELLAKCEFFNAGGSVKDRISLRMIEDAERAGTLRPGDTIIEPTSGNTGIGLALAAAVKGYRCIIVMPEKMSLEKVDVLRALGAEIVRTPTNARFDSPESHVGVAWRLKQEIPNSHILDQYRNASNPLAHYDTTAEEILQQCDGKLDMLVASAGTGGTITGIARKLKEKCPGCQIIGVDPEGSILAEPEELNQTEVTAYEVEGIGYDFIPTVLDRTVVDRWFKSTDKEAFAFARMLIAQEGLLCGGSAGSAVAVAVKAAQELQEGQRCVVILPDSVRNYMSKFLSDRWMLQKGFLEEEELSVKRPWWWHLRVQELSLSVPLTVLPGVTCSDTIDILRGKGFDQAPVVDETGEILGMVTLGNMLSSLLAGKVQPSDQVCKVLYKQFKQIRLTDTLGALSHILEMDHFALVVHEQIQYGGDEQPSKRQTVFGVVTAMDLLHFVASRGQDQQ
To be noted: male, New Zealand, rabbit, in vivo, iv, 2 mg/kg.

The target in series [2] is T1, cystathionine synthase (CS). Kind of series: CS gateway enzyme breath test with homocysteine metaprobe, basal and after methionine load. The conditions noted are these: n = 4.
For series [3], the target named is T2, oxoprolinase (Rattus norvegicus, UniProt P97608).
T2 sequence (P97608 1-1288): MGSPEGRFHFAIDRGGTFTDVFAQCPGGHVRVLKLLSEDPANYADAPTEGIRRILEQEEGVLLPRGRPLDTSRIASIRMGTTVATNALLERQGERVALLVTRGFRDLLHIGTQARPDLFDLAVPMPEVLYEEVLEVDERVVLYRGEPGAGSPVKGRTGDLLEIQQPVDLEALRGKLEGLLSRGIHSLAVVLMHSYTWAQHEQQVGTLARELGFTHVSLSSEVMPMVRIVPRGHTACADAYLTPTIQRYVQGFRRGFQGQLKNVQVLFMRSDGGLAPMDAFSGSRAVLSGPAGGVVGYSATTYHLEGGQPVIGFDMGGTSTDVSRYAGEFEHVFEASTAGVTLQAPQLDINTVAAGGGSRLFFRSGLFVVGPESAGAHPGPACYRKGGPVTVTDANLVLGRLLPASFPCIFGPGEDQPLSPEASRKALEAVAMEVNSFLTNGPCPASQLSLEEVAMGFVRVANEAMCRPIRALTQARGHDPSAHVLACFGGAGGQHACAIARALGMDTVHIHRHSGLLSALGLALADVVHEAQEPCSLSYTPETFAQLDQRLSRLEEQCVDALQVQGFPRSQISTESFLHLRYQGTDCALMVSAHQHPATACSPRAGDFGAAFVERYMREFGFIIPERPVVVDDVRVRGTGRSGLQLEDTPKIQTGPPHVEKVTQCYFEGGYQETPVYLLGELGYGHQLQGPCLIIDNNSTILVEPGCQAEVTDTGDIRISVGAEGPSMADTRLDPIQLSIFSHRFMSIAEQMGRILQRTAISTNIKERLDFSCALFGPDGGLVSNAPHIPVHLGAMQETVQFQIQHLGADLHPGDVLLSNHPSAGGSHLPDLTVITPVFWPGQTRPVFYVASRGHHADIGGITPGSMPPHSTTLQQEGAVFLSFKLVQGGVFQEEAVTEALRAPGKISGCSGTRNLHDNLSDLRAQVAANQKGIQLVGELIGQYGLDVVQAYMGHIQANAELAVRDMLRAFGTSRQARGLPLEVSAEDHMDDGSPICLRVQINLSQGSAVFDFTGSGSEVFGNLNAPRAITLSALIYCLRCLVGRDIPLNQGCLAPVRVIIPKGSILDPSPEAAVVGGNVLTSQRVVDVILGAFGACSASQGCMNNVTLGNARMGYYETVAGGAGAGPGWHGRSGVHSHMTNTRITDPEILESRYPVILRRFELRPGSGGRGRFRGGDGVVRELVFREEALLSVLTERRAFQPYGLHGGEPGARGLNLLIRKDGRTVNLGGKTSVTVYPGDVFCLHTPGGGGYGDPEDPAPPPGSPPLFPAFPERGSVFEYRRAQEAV
To be noted: enzymatic assay; cited from earlier work.

The target in series [4] is T3, oxoprolinase (Homo sapiens, UniProt O14841).
T3 construct: Seven healthy volunteers (ages 22-39) each participated in two studies; from tissue; host or cells: whole body of human volunteers (oral dose, breath test)
T3 sequence (O14841 1-1288): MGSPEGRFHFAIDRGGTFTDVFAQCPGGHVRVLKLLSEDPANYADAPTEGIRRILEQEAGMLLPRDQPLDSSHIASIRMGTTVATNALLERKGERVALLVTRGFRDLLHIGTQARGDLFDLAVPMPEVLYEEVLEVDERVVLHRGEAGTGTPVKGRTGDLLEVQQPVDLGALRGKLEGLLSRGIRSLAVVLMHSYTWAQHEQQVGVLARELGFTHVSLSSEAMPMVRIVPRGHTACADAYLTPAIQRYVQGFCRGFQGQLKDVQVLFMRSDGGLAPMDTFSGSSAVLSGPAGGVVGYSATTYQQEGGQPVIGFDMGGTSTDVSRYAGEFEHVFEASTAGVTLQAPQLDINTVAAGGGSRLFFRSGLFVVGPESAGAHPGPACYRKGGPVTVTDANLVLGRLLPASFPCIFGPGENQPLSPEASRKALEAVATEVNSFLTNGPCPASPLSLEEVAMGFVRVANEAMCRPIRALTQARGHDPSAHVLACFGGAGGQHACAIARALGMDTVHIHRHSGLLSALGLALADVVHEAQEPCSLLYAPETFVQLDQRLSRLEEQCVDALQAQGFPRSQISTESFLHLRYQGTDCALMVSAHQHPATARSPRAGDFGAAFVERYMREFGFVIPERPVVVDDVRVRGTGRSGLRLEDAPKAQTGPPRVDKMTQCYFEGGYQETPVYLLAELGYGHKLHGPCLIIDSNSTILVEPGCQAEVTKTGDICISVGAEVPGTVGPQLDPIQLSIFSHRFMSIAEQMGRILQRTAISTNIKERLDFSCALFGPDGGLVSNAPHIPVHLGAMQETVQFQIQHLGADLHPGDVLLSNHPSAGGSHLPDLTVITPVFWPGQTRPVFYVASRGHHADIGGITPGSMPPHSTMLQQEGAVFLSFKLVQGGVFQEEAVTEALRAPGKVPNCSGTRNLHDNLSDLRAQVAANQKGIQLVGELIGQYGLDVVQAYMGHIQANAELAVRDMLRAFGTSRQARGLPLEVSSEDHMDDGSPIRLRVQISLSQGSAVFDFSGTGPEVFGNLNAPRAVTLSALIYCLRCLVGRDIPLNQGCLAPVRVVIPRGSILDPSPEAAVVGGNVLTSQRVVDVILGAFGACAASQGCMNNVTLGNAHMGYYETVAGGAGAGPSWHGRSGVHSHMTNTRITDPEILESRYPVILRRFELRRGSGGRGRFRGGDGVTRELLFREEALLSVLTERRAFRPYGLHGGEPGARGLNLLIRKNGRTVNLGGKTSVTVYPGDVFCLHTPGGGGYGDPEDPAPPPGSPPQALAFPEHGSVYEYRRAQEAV
Description: 13C-OTC breath test, metabolic rate index with and without acetaminophen. It is filed as in vivo. The conditions noted are these: for Metabolic Rate Index, ACE+: 2 gm acetaminophen one hour prior to OTC; for Metabolic Rate Index, BASAL: oral 13C-OTC 1.5 mg/kg alone. The procedure:
Seven healthy volunteers (ages 22-39) each participated in two studies. After three days on a weight maintaining diet, each participant was given a drink containing ^13C-labelled OTC (1.5 mg/kg), following which blood and expired breath were sampled frequently. In the first test, each participant received the OTC alone. In the second study at least one week later, each participant ingested 2 gm acetaminophen one hour prior to the OTC drink. Expired breath samples were analyzed for the ^13C enrichment (APE) of CO2, and expressed as isotopic enrichment in atom per cent excess (APE×1000) versus time, in the usual manner and in accordance with the general protocol described in Example I. A second panel of probands (ages 53-73) were tested in a similar manner.
From the pattern of label enrichment, at least two types of kinetic processes are apparent, one is absorption, since the metaprobe was dispensed orally, and the other disposition.
Deconvolution of this model by equation transformation and coefficient matching (Wagner, 1993) afforded separate kinetic measurements for the post absorptive metabolism of OTC in the metabolic compartment, and this was expressed as a fractional catabolic rate (Lassen and Perl, 1979). Lastly, the per cent of metaprobe dose recovered in breath was computed from the cumulative integral of the ^13CO2 enrichment versus time plot multiplied by the CO2 production rate for each proband, which in these experiments were measured by indirect calorimetry (but can also be estimated from formulas that have been proven to correlate an individual's height, weight, age and gender with CO2 production). The metabolic index for OTC utilization by oxoprolinase was then computed by the simple expedient of multiplying the dose of metaprobe by the per cent recovery and then by the fractional catabolic rate.
The data from the validating trial in this Example III all corroborate the biochemical hypothesis concerning the OTC metaprobe's mode of action as an indicator of oxoprolinase activity and, therefore, its utility as a surrogate indicator for glutathione production capacity. The results, which are expressed in terms of nanomoles of OTC metabolized per kilogram body weight per minute for the basal condition (BASAL), post acetaminophen (ACE+), and the stimulatory difference between ACE+ and BASAL (STIM) are shown in Table 5.

Consider `CCOC(=O)[C@@H]1CCSC(=O)N1` [Homocysteine Metaprobe, L-2-oxo-tetrahydro-1,3-thiazine-4-carboxylic acid ethyl ester], for which the “Metabolic Response Index (MRI), BASAL” value in series [1] is given as 85 +/− 14 (n = 4) MicroMol/kg/hr. In addition, in series [2], the “LI, load tolerance index (BASAL minus MET+)” value was 57 +/− 24 (n = 4) MicroMol/kg/hr.
For `O=C(O)[C@@H]1CS[13C](=O)N1` [OTC, L-2-oxo[^13C]thiazolidine-4-carboxylic acid], in series [3], the “action on oxoproline hydrolysis by oxoprolinase” value was “competitive inhibitor of oxoproline hydrolysis”. Besides, the “Metabolic Rate Index, ACE+” value in series [4] (ALL (22-73 yrs., n = 12)) came out at 515 ± 227 nmol/kg/min; in series [4] (OLD (53-73 yrs., n = 5)), 452 ± 161 nmol/kg/min; in series [4] (YOUNG (22-39 yrs., n = 7)), 547 ± 269 nmol/kg/min. For the same molecule, the “Metabolic Rate Index, STIM (difference between ACE+ and BASAL)” value in series [4] (ALL (22-73 yrs., n = 12)) was determined as 208 ± 82 nmol/kg/min; in series [4] (OLD (53-73 yrs., n = 5)) it was 117 ± 40 nmol/kg/min; in series [4] (YOUNG (22-39 yrs., n = 7)), 261 ± 115 nmol/kg/min. Moreover, the “Metabolic Rate Index, BASAL” value amounted to 307 ± 108 nmol/kg/min in series [4] (ALL (22-73 yrs., n = 12)); 335 ± 110 nmol/kg/min in series [4] (OLD (53-73 yrs., n = 5)); 286 ± 111 nmol/kg/min in series [4] (YOUNG (22-39 yrs., n = 7)).
